Measured values from patent publication US6734193B1, “(1,2,3,4-tetrahydroquinolin-8-yl)-heptatrienoic acid derivatives having serum glucose reducing activity” (Allergan, Inc., priority 2003, dated 2004).

Experiments:
[1] = test system: female diabetic db/db mice; test: serum glucose, triglyceride and thyroxine levels in db/db mice; conditions: for Glucosc Day 0 / Triglycerides Day 0: Day 0 (pre-treatment)
Method: An assay described below tests the effect of compounds of the invention on serum glucose, tryglyceride and thyroxine levels in female 9-10 weeks old db/db mice.
Female diabetic db/db (9-10 weeks old) mice were maintained on standard laboratory food and treated by oral gavage with vehicle (corn oil), standard compound (2E,4E,1′S,2′S)-3-methyl-5-[2′-methyl-2′-(5,5,8,8-tetramethyl-5,6,7,8-tetrahydro-naphthalen-2-yl)-cyclopropyl]-penta-2,4-dienoic acid (5 mg/kg) or the test compound (5-100 mg/kg, as described in Table 2) daily for seven days at 8:00 AM. Blood samples (70 μl) were taken by orbital bleeding at 11:00 AM on day 0 (pre-treatment), day 3, and day 6. On day 7, a blood sample (700 μl) was taken at 11:00 AM and the animals were sacrificed. Glucose, triglyceride and thyroxine (T4) levels were determined on a Boehringer Manheim Hatachi Clinical Chemistry Analyzer using standard protocols provided by the manufacturer and reagents that were supplied in commercially available kits (glucose and T4: Boehringer Manheim; triglycerides: Roche Diagnostics). A NUMBER OF animals were treated in each group.

[2] = biological target: T1, RXRγ (Homo sapiens, UniProt P48443); test: holoreceptor transactivation assay, RXRγ; format: cell-based; conditions: for EC50: holoreceptor assay, read-out: RXR Trans. EC50 γ; for RXR Trans. efficacy γ (in parentheses): percentage compared to the standard compound
T1 construct: expressed in transfected cells
T1 sequence (P48443 1-463): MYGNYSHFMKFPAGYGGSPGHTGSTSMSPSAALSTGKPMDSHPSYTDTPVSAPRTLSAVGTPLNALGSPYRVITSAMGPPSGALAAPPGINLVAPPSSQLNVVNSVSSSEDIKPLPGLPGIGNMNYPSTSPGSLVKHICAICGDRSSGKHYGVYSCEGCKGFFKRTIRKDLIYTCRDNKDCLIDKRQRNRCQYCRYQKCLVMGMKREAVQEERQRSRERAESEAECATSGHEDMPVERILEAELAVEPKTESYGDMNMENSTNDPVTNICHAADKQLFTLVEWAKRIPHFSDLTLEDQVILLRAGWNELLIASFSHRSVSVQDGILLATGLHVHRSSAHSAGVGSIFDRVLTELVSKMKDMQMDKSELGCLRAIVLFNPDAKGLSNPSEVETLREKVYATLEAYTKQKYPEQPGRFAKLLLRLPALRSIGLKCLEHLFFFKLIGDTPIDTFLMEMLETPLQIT
Text: (§1) A holoreceptor transactivation assay and a ligand binding assay which measure the antagonist/agonist like activity of the compounds of the invention, or their ability to bind to the several retinoid receptor subtypes, respectively, are described in published PCT Application No. WO WO093/11755 (particularly on pages 30-33 and 37-41) published on Jun. 24, 1993, the specification of which is also incorporated herein by reference. A detailed experimental procedure for holoreceptor transactivations has been described by Heyman et al. Cell 68, 397-406, (1992); Allegretto et al. J. Biol. Chem. 268, 26625-26633, and Mangelsdorf et al. The Retinoids: Biology, Chemistry and Medicine, pp 319-349, Raven Press Ltd., New York, which are expressly incorporated herein by reference. The results obtained in this assay are expressed in EC50 numbers, as they are also in the chimeric receptor transactivation assay. The results of the ligand binding assay are expressed in Ki numbers. (See Cheng et al Biochemical Pharmacology Vol. 22 pp 3099-3108, expressly incorporated herein by reference.)
(§2) This standard compound is described in U.S. Pat. No. 6,114,533.
(§3) Table 1 discloses the activity of certain exemplary compounds of the invention in the above-described receptor transactivation and binding assays. Particularly, the transactivation data pertaining to activation of the RAR receptors were obtained in the chimeric assay, and the transactivation data pertaining to the activation of RXR receptors were obtained in the holoreceptor assay.

[3] = biological target: T2, RARβ (Homo sapiens, UniProt P10826); test: ligand binding assay, RARβ; conditions: read-out: RAR Bind. Ki β
T2 sequence (P10826 1-455): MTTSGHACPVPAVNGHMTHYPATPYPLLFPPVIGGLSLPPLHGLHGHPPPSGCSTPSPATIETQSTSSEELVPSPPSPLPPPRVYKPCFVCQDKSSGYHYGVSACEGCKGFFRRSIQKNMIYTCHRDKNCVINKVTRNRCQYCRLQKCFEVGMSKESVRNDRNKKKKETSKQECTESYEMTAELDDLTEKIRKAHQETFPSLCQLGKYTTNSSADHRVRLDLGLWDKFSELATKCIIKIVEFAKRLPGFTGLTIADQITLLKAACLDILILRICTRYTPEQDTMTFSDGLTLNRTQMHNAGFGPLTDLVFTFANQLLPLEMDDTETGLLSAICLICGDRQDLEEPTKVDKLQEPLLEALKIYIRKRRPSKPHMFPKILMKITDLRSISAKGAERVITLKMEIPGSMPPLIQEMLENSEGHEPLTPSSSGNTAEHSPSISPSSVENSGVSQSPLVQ
Text: as §1

[4] = biological target: T3, RXRβ (Homo sapiens, UniProt P28702); test: holoreceptor transactivation assay, RXRβ; format: cell-based; conditions: for EC50: holoreceptor assay, read-out: RXR Trans. EC50 β; for RXR Trans. efficacy β (in parentheses): percentage compared to the standard compound
T3 construct: expressed in transfected cells
T3 sequence (P28702 1-533): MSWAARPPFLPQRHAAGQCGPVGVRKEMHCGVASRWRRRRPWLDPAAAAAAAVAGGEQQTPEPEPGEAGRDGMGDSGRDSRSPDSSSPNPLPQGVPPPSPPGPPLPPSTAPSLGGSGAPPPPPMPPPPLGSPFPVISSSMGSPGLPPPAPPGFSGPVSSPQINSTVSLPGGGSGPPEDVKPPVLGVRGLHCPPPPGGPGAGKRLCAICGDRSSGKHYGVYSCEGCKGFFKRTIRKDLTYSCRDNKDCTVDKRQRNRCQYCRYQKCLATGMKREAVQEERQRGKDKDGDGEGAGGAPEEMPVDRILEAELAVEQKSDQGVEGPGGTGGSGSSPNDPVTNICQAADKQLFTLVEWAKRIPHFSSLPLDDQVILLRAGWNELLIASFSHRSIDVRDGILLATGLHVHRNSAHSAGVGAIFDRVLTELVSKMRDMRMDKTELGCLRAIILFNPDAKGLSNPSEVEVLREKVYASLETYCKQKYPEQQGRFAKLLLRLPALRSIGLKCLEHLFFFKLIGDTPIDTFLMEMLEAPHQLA
Text: as §1, §2, §3

[5] = biological target: T4, RARα (Homo sapiens, UniProt P10276); test: ligand binding assay, RARα; conditions: read-out: RAR Bind. Ki α
T4 sequence (P10276 1-462): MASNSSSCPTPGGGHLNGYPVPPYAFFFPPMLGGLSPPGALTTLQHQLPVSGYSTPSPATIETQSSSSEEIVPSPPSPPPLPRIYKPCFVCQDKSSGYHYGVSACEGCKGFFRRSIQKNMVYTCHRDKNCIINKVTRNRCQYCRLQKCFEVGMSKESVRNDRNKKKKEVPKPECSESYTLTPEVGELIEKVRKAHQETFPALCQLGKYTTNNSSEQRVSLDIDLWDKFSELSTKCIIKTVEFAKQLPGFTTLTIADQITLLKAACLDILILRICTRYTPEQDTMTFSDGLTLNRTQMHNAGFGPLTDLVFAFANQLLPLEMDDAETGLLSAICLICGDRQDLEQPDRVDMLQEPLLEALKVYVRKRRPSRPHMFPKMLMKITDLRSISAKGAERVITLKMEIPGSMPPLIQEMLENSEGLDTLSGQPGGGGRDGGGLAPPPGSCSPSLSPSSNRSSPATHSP
Text: as §1

[6] = biological target: T1, RXRγ; test: ligand binding assay, RXRγ; conditions: read-out: RXR Bind Ki γ
Text: as §1

[7] = biological target: T5, RXRα (Homo sapiens, UniProt P19793); test: ligand binding assay, RXRα; conditions: read-out: RXR Bind Ki α
T5 construct: expressed in transfected cells
T5 sequence (P19793 1-462): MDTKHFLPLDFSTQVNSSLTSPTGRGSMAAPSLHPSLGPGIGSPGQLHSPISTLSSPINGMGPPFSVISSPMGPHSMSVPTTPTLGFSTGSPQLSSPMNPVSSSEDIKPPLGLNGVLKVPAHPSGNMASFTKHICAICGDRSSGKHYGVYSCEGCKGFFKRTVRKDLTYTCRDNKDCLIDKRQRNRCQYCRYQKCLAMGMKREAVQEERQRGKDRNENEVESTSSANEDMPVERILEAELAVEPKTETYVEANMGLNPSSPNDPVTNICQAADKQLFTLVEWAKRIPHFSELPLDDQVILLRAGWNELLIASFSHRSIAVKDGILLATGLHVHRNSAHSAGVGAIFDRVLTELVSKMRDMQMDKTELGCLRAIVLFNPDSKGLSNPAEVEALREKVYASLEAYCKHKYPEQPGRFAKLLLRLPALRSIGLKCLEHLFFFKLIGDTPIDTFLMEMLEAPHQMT
Text: as §1

[8] = biological target: T3, RXRβ; test: ligand binding assay, RXRβ; conditions: read-out: RXR Bind Ki β
Text: as §1

[9] = biological target: T6, RARγ (Homo sapiens, UniProt P13631); test: ligand binding assay, RARγ; conditions: read-out: RAR Bind. Ki γ
T6 sequence (P13631 1-454): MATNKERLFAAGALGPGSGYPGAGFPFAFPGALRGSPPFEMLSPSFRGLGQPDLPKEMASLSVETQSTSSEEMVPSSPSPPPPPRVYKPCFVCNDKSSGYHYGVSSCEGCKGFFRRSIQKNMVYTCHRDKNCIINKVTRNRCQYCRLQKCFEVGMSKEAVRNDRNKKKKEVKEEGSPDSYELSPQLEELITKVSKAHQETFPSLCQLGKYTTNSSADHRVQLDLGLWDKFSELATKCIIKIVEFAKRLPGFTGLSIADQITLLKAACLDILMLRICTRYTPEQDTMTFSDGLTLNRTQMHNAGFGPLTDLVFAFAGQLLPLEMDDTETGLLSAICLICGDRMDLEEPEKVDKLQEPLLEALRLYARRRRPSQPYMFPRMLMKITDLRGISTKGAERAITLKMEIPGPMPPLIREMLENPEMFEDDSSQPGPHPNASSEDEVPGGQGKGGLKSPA
Text: as §1

[10] = biological target: T5, RXRα; test: holoreceptor transactivation assay, RXRα; format: cell-based; conditions: for EC50: holoreceptor assay, read-out: RXR Trans. EC50 α; for RXR Trans. efficacy α (in parentheses): percentage compared to the standard compound
Text: as §1, §2, §3

CC(/C=C/[C@@H]1C[C@]1(C)c1ccc2c(c1)C(C)(C)CCC2(C)C)=C\C(=O)O [Standard compound, (2E,4E,1′S,2′S)-3-methyl-5-[2′-methyl-2′-(5,5,8,8-tetramethyl-5,6,7,8-tetrahydro-naphthalen-2-yl)-cyclopropyl]-penta-2,4-dienoic acid]
Glucosc Day 0 ([1]; 4 mg/kg oral gavage daily): 524 ± 45 mg/dL | Triglycerides Day 0 ([1]; 4 mg/kg oral gavage daily): 273 ± 66 mg/dL | Glucosc Day 3, 3h ([1]; 4 mg/kg oral gavage daily): 512 ± 156 mg/dL | Triglycerides Day 3, 3h ([1]; 4 mg/kg oral gavage daily): 755 ± 464 mg/dL | Glucosc Day 6, 3h ([1]; 4 mg/kg oral gavage daily): 459 ± 148 mg/dL | T4 Day 7 ([1]; 4 mg/kg oral gavage daily, Day 7): 1.4 ± 0.5 µg/dL

CC/C(=C(F)/C=C/C(C)=C/C(=O)O)c1cc(C(C)C)cc2c1N(CC)CCC2(C)C [Compound 28, (2E,4E,6E)-7-(1-Ethyl-6-isopropyl-4,4-dimethyl-1,2,3,4-tetrahydro-quinolin-8-yl)-6-fluoro-3-methyl-nona-2,4,6-trienoic acid]
EC50 [2]: 0.0003 µM | RXR Trans. efficacy γ (in parentheses) [2]: 75% | Ki [3]: 0.43 µM | EC50 [4]: 0.0004 µM | RXR Trans. efficacy β (in parentheses) [4]: 66% | Ki [5]: 0.705 µM | Ki [6]: 0.021 µM | Ki [7]: 0.002 µM | Ki [8]: 0.021 µM | Ki [9]: 2 µM | EC50 [10]: 0.0003 µM | RXR Trans. efficacy α (in parentheses) [10]: 86%

CCN1CCC(C)(C)c2cc(C(C)C)cc(\C(C)=C(F)/C=C/C(C)=C/C(=O)O)c21 [Compound 27, (2E,4E,6E)-7-(1-Ethyl-6-isopropyl-4,4-dimethyl-1,2,3,4-tetrahydro-quinolin-8-yl)-6-fluoro-3-methyl-octa-2,4,6-trienoic acid]
EC50 [2]: 0.0001 µM | RXR Trans. efficacy γ (in parentheses) [2]: 75% | Ki [3]: 0.84 µM | EC50 [4]: 0.0005 µM | RXR Trans. efficacy β (in parentheses) [4]: 77% | Ki [5]: 0.68 µM | Ki [7]: 0.001 µM | Ki [8]: 0.011 µM | Ki [9]: 2.5 µM | EC50 [10]: 0.0001 µM | RXR Trans. efficacy α (in parentheses) [10]: 74%

CCCN1CCC(C)(C)c2cc(C(C)C)cc(\C(C)=C(F)/C=C/C(C)=C/C(=O)O)c21 [Compound 29, (2E,4E,6E)-6-Fluoro-7-(6-isopropyl-4,4-dimethyl-1-propyl-1,2,3,4-tetrahydro-quinolin-8-yl)-3-methyl-octa-2,4,6-trienoic acid]
EC50 [2]: 0.002 µM | RXR Trans. efficacy γ (in parentheses) [2]: 10% | Ki [3]: 0.45 µM | EC50 [4]: 0.006 µM | RXR Trans. efficacy β (in parentheses) [4]: 27% | Ki [5]: 0.48 µM | Ki [7]: 0.001 µM | Ki [8]: 0.015 µM | Ki [9]: 1.4 µM | EC50 [10]: 0.002 µM | RXR Trans. efficacy α (in parentheses) [10]: 32% | Glucosc Day 0 ([1]; 50 mg/kg oral gavage daily): 523 ± 84 mg/dL | Triglycerides Day 0 ([1]; 50 mg/kg oral gavage daily): 316 ± 339 mg/dL | Glucosc Day 3, 3h ([1]; 50 mg/kg oral gavage daily): 476 ± 96 mg/dL | Triglycerides Day 3, 3h ([1]; 50 mg/kg oral gavage daily): 326 ± 111 mg/dL | Glucosc Day 6, 3h ([1]; 50 mg/kg oral gavage daily): 441 ± 184 mg/dL
